Here are results for six molecules from patent US11400089B2, “Multikinase inhibitors and uses in reproductive and digestive tract fibrosis” (AIVIVA BIOPHARMA, INC., priority 2017, dated 2022).

Where a name gives a salt, the structure may show the parent alone.

Assay [1] concerns testosterone and phenylephrine induced benign prostate hyperplasia. Kind of assay: testosterone and phenylephrine induced benign prostate hyperplasia in rats (Example 1). The assay is classed as in vivo, Male Wistar rats. The following applies: for epithelial hyperplasia score, representative image of dorsolateral prostate: FIG. 2; for mean prostate weight (prostate weight/100 g body weight): day 42, FIG. 1; for mean dorsolateral prostate hyperplasia scores compared to vehicle treatment: induced rats, intra-prostate days 15 and 29, axitinib, sorafenib, FIG. 3. As for the experimental part:
Wistar and Sprague-Dawley strains of rats are susceptible to developing benign prostatic hyperplasia after treatment with exogenous testosterone and can serve as a model of hyperplasia induced by endogenous hormones, i.e., BPH in males and uterine fibroids (UF) in females. A study was conducted to determine the effects of test compounds and vehicle on testosterone and phenylephrine induced benign prostate hyperplasia in rats. Male Wistar rats were induced with testosterone (2 mg/kg) plus phenylephrine (5 mg/kg) administered daily by subcutaneous injection on days 1 through 28. Vehicle or the multikinase test compounds, axitinib (1%), sorafenib (1%), pirfenidone (2.5%) and riociguat (1%), were administered by intra-prostate injection (0.2 mL) on days 15 and 29. Animals were euthanized on day 42. Body weights were determined. Prostate glands were harvested and weighed.
Prostate weight/100 g body weight was determined for each treatment group (FIG. 1). […] Rather, only multikinase inhibitors with a certain inhibitory spectrum would work.
At necropsy, the dorsolateral and ventral lobes of the prostate were separated and cut into halves. The left halves were fixed in 10% neutral buffered formalin, sectioned, and stained with Hematoxylin and Eosin (H&E). Glandular hyperplasia was recognized as an increase in epithelial cells within normal appearing gland profiles, reflected by stratification of epithelial cells and increased presence of epithelial tufting and papillary projections (FIG. 2). Stromal changes were examined microscopically. These changes included inflammation and tissue fibroplasia. Each section was given a severity score ranging from 0 (not present) through 5 (severe).

Assay [2] has the same test system. Kind of assay: testosterone and phenylephrine induced benign prostate hyperplasia in rats (Example 3). It counts as in vivo, Male Wistar rats. The following applies: for epithelial (glandular) hyperplasia score, dorsolateral prostate, representative image: grade 0 (not present) to 5 (severe), FIG. 4. The procedure: This study was conducted to determine the effects of multikinase inhibitors and vehicle on testosterone and phenylephrine induced benign prostate hyperplasia in rats. Male Wistar rats were induced with testosterone (2 mg/kg) plus phenylephrine (5 mg/kg) administered daily by subcutaneous injection on days 5 through 32. Vehicle or test compounds (all 1% w/v), nintedanib, sunitinib or lenvatinib and doxazosin mesylate, were administered by intra-prostate injection (0.4 ml) in dorsolateral and ventral lobes on days 1 and 18. Animals were euthanized on day 32.
At necropsy, the ventral and dorsolateral lobes of the prostate were separated and then cut into halves. The left halves were fixed in 10% neutral buffered formalin, sectioned, and stained with Hematoxylin and Eosin (H&E). Histological changes in these sections were scored. Epithelial hyperplasia was recognized as an increase in epithelial cells within normal-appearing gland profiles, primarily reflected by stratification of epithelial cells and increased presence of epithelial tufting and papillary projections. A severity grade of 0 (not present) through 5 (severe) was assigned to each sample.

Assay [3] deals with full-thickness dermal wounds. Kind of assay: full-thickness dermal wounds in rabbit ear, histopathology (Example 5). The assay is classed as in vivo, New Zealand White rabbits. On the set-up: average total score of test wounds lower than untreated/control wounds by / Neovascularization (histopathology score, treated mean) / Fibrosis/Collagen (histopathology score, treated mean) / Reepithelialization (histopathology score, treated mean) / Total Score (histopathology, treated mean): scale not given here. The following applies: for Fibrosis/Collagen (histopathology score, treated mean) / Neovascularization (histopathology score, treated mean) / Reepithelialization (histopathology score, treated mean) / Total Score (histopathology, treated mean): 1% intradermal dosing days 15 and 29, Day 42. As for the experimental part:
Test compounds were examined in full-thickness dermal wounds in rabbits. Seven male New Zealand White rabbits, ranging in body weight from 3.03 to 3.40 kg were used in this study. Four wounds were placed on the ventral surface of both ears using an 8 mm skin punch biopsy. Axitinib (1.0%), nintedanib (1.0%), lenvatinib (1.0%), sorafenib (1.0%) and sunitinib (1.0%) were administered by intradermal or intralesional injection on days 15 and 29 following surgery. Animals were euthanized on Day 42 and trauma sites were harvested and divided in half. One half was preserved in formalin for histological examination and the other half frozen for TGF beta analysis. Tissue H&E staining was evaluated semi-quantitatively for inflammation and neovascularization. Tissue fibrosis and collagen organization were evaluated by Mason's trichrome staining. Scores for four intradermal sites receiving test articles were averaged for each rabbit. Most scar tissues were composed of neovascularization, fibroblast hyperplasia, collagen disorganization and re-epithelialization.

In assay [4] the test system is suture induced ocular fibrosis. Kind of assay: suture induced ocular fibrosis model in rabbits (Example 4). It counts as in vivo. As for the experimental part: A study was conducted to determine the potential beneficial effects of topical administration of test compounds and vehicle in a suture induced ocular fibrosis model in rabbits. Sutures were placed intrastromally, under a microscope, in the cornea of rabbits. In each eye, one 9.0 silk suture was placed, in a vertical position, temporal to the center of the cornea and a second suture was placed nasal to the corneal center. Each suture had two stromal incursions approximately 2 mm from the limbus. Test compounds having a certain spectrum of multikinase inhibition activities or vehicle were topically instilled (35 μL/eye) in the eyes three times daily for 10 days following the day of surgery. The treatment groups include vehicle, axitinib (0.3%), nintedanib (0.3%), pirfenidone (1%), riociguat (0.3%), sorafenib (0.3%) and lenvatinib (0.3%). Six left eyes were used per treatment group.
During the in-life phase, gross ocular observations of very slight to moderate conjunctival congestion and swelling were similar among groups, including the vehicle control. The animals were sacrificed on Day 11 and eyes enucleated and dissected for histopathological evaluation.

The test system of a further assay is TGF beta mRNA expression. Kind of assay: TGF beta mRNA expression in rabbit dermal wound model (Example 5). The assay is classed as in vivo, New Zealand White rabbits. The following applies: 1% intradermal days 15 and 29; Day 42; FIG. 10. The procedure:
Test compounds were examined in full-thickness dermal wounds in rabbits. Seven male New Zealand White rabbits, ranging in body weight from 3.03 to 3.40 kg were used in this study. Four wounds were placed on the ventral surface of both ears using an 8 mm skin punch biopsy. Axitinib (1.0%), nintedanib (1.0%), lenvatinib (1.0%), sorafenib (1.0%) and sunitinib (1.0%) were administered by intradermal or intralesional injection on days 15 and 29 following surgery. Animals were euthanized on Day 42 and trauma sites were harvested and divided in half. One half was preserved in formalin for histological examination and the other half frozen for TGF beta analysis.
TGF beta mRNA expression in treated trauma samples was compared to expression in untreated samples. In general, TGF beta expression in treated samples was lower relative to untreated trauma samples.

In assay [5] the test system is TGF beta 1 protein levels. Kind of assay: TGF beta 1 protein level (ELISA) in pig linear incision wound model (Example 6). The assay is classed as in vivo, Gottingen minipigs. The following applies: 16 mg per wound site intradermal; Days 4, 7 and 9; FIG. 11. As for the experimental part:
Full-thickness linear incision wounds were created in Gottingen minipigs on Day 1. 10 wounds approximately 3 cm in length and spaced at least 5 cm apart were created on the dorsal surface of the animals, perpendicular to the spine. Test agents included nintedanib (2%), lenvatinib (2%), sorafenib (1%), axitinib (2%) and vehicle control. Test agents were administered by intradermal injection immediately after wound creation. The dose of nintedanib, lenvatinib, sorafenib, or axitinib was 16 mg per wound site. Three minipigs were dosed in a similar manner. One minipig was sacrificed on Day 4, one on Day 7, and one on Day 9.
At the time of sacrifice, two dermal punch biopsies (4 mm) from each side of the wound sites were collected. Two biopsies were flash frozen in liquid nitrogen and stored at −80° C. prior to processing by protein extraction and ELISA (enzyme-linked immunosorbent assay) analysis. TGF beta protein levels were measured on Days 4, 7 and 9.
(In general: ELISA stands for enzyme-linked immunosorbent assay.)

Setting [6] is: TE+PE induced rats, axitinib 1%, sorafenib 1%, pirfenidone 2.5%, severity score 0 (not present) to 5 (severe), induced vehicle group score=2.
The mark [7] stands for this setting: TE+PE induced rats, intra-prostate 0.4 ml days 1 and 18, day 32, induced vehicle score=4.
Setting [8] is: 1% intradermal, rabbit ear wound.

`COC(=O)N(C)c1c(N)nc(-c2nn(Cc3ccccc3F)c3ncccc23)nc1N` [riociguat]: in assay [1] (TE induced rat, riociguat 1%, severity score 0 to 5, TE-induced group 6 score=2), the “epithelial hyperplasia score, representative image of dorsolateral prostate” value (“epithelial hyperplasia score” for short) was 1. Moreover, the “mean prostate weight (prostate weight/100 g body weight)” value in assay [1] (TE induced rats, riociguat 1% intra-prostate days 15 and 29, compared to group 6) is on record as “resulted in a reduction in the mean prostate weight”. Further, the “mean dorsolateral prostate hyperplasia scores compared to vehicle treatment” value in assay [1] (riociguat 1%, pirfenidone 2.5%) is given as “demonstrated a decrease in hyperplasia scores”.

As to `Cc1ccc(=O)n(-c2ccccc2)c1` [pirfenidone], in assay [1] (setting [6]), the “epithelial hyperplasia score” value is 1. In assay [1] (riociguat 1%, pirfenidone 2.5%), the “mean dorsolateral prostate hyperplasia scores compared to vehicle treatment” value was “demonstrated a decrease in hyperplasia scores”.

As to `COc1cc2nc(N3CCN(C(=O)C4COc5ccccc5O4)CC3)nc(N)c2cc1OC` (centres unmarked) [doxazosin, doxazosin mesylate], in assay [2] (setting [7]), the “epithelial (glandular) hyperplasia score, dorsolateral prostate, representative image” value was 3. Further, in assay [2] (TE+PE induced rats, intra-prostate 0.4 ml days 1 and 18, day 32, grade 0 to 5, induced vehicle score=4, FIG. 5), the “epithelial (glandular) hyperplasia score, ventral prostate, representative image” value is reported as 3.

As for `CNC(=O)c1ccccc1Sc1ccc2c(/C=C/c3ccccn3)n[nH]c2c1` [axitinib], in assay [3] (rabbit ear wound), the “Fibrosis/Collagen (histopathology score, treated mean)” value came to 3.3; the “Neovascularization (histopathology score, treated mean)” value turned out to be 1; the “Reepithelialization (histopathology score, treated mean)” value is listed as 0.3; the “Total Score (histopathology, treated mean)” value was 4.6. Further, in assay [3] (1% intradermal, difference treated vs control), the “average total score of test wounds lower than untreated/control wounds by” value worked out at 1.4. In addition, the “epithelial hyperplasia score” value in assay [1] (setting [6]) was 1.

`CNC(=O)c1cc(Oc2ccc(NC(=O)Nc3ccc(Cl)c(C(F)(F)F)c3)cc2)ccn1` [sorafenib]: in assay [3] (rabbit ear wound), the “Fibrosis/Collagen (histopathology score, treated mean)” value is recorded as 2.5; the “Neovascularization (histopathology score, treated mean)” value came out at 3; the “Reepithelialization (histopathology score, treated mean)” value amounted to 0.3; the “Total Score (histopathology, treated mean)” value is listed as 5.8. In assay [3] (setting [8]), the “angiogenesis and fibrosis at treated trauma sites (histopathology summary)” value is “do not show any reduction in angiogenesis and fibrosis”; the “fibrosis compared with control wound sites” value is on record as “similar, or increased fibrosis compared to control sites”; the “neovascularization compared with untreated wounds” value is reported as “slightly increased neovascularization”; the “scar formation overall compared with control sites” value is “does not appear to have reduced scar formation”. Further, the “areas of neovascularization on the corneal surface” value in assay [4] (0.3% topical 35 μL/eye three times daily for 10 days, FIG. 8) is “efficacious in reducing the areas of neovascularization”. The “fibroplasia and/or collagen density (histological staining)” value in assay [4] (0.3% topical three times daily for 10 days, Day 11, FIG. 9) is reported as “little or no effect on fibroplasia or collagen formation”. Besides, in assay [4] (0.3% topical three times daily for 10 days, relative to vehicle, FIG. 9), the “alpha SMA staining (immunohistochemical analysis)” value is “no effect on alpha SMA relative to vehicle treatment”. Besides, the “mean prostate weight (prostate weight/100 g body weight)” value in assay [1] (TE+PE induced rats, 1% test article, intra-prostate 0.2 mL days 15 and 29, compared to vehicle-treated group 1) is reported as “did not show a reduction in the mean prostate weight”. The “epithelial hyperplasia score” value in assay [1] (setting [6]) was 2. For the same molecule, the “mean dorsolateral prostate hyperplasia scores compared to vehicle treatment” value in assay [1] (riociguat 1%, pirfenidone 2.5%) is on record as “did not lead to reduction in hyperplasia”. Further, in the assay on TGF beta mRNA expression, the “mean folds of TGF beta mRNA expression vs untreated trauma samples” value is listed as “do not show mean TGF beta expression levels significantly different from the untreated trauma samples”. Moreover, in assay [5], the “TGF beta 1 protein levels in wound” value is given as “much less effective”.

Turning to `CCN(CC)CCNC(=O)c1c(C)[nH]c(/C=C2\C(=O)Nc3ccc(F)cc32)c1C` [sunitinib], in assay [3] (rabbit ear wound), the “Fibrosis/Collagen (histopathology score, treated mean)” value worked out at 3.7; the “Neovascularization (histopathology score, treated mean)” value is 4; the “Reepithelialization (histopathology score, treated mean)” value came out at 0; the “Total Score (histopathology, treated mean)” value is recorded as 7.7. The “epithelial (glandular) hyperplasia score, ventral prostate, representative image” value in assay [2] (768 h) turned out to be 3. In addition, the “epithelial (glandular) hyperplasia score, dorsolateral prostate, representative image” value in assay [2] (setting [7]) amounted to 3.
